Source: patent US20220071952A1, “METHODS OF TREATING AND PREVENTING HEPATOTOXICITY” (Natreon, Inc., priority 2020, published 2022)
“And” between values parts separate entries of the source, which are not always exact repeats. Equal entries are not always repeated.

Key:
[1] = test system: CCl4-induced hepatotoxicity in mice; test: Synergistic hepatoprotective activity of DBPs against CCl4-induced hepatotoxicity (Example IV); details: for ACP / ALP / ALT / AST / Total Protein: CCl4 1 ml/kg, mean ± SEM, n=4
[2] = test system: alcohol-induced hepatotoxicity in mice; test: Alcohol (ethanol)-induced hepatotoxicity in mice, biochemical and physical parameters (Example III); format: in vivo, Swiss Albino mice; details: for Relative organ weight (w.r.t body weight) Kidney / Relative organ weight (w.r.t body weight) Liver / ACP / ALP / ALT(SGPT) / AST(SGOT) / Total Protein: 10 mg/kg p.o. + alcohol 5 g/kg p.o. twice daily, mean ± SD; for ACP / ALP / ALT(SGPT) / AST(SGOT) / Total Protein: plasma
Protocol: (§1) Swiss Albino male and female mice weighing approximately 30±5 g, 2 month old mice were obtained from National Research Institute of Ayurveda for Drug Development (Govt. of India), Kolkata, and were housed in polypropylene cages at 22±3° C., relative air humidity of 45 to 55%, with 12.00 hr light & dark cycle (lighting on from 6:00 AM to 6:00 PM). Mice were provided a standard pellet chow diet (carbohydrate 65.5%, protein 17.6%, fat 6.6%) and distilled water ad libitum. The mice were acclimatized for one week in the laboratory conditions, before being used in the experiment. All experiments were conducted between 10.00 hr and 14.00 hr. Principles of laboratory animals care (NIH publication no. 85-23, revised 1985) were followed.
In the present study simultaneous administration of alcohol (ethanol) and treatment with 3-OH-DBP and 3,8-(OH)2-DBP was done.
(§2) Vehicle control animals (“Con Veh”) were administered 0.3% CMC orally for 15 days.
(§3) Animals receiving ethanol (“Alc+0.3 CMC”, “3-OH-DBP+Alc”, “3,8-(OH)2-DBP+Alc”) were administered ethanol in 0.3% CMC orally as discussed above.
(§4) Results were expressed in terms of mean±SD (n=8). The data were subjected to one way ANOVA followed by Tukey's test using GraphPad Prism 4.0 software to establish statistical significance (*p<0.05, **p<0.01, ***p<0.001 vs. vehicle control; # p<0.05, ## p<0.01, ### p<0.001 vs. animals administered ethanol only).

[3] = test system: CCl4-induced hepatotoxicity in mice; test: Carbon tetrachloride (CCl4)-induced hepatotoxicity in mice, serum biochemical parameters (Example II); format: in vivo, Swiss albino mice; details: for ALT / AST / MDA / Total Bilirubin / Total Protein: 10 mg/kg p.o. 7 days + CCl4 (30%) 1 ml/kg i.p., serum, mean ± SD, n=6
Protocol: Swiss albino mice of both sexes, weighing approximately 25-30 g, were obtained from National Research Institute of Ayurveda for Drug Development (Govt. of India), Kolkata, and were housed in polypropylene cages at 22±3° C., relative air humidity of 45 to 55%, with 12.00 hr light and dark cycle (lighting on from 6:00 AM to 6:00 PM) and were provided standard pellet chow (carbohydrate 65.5%, protein 17.6%, fat 6.6%) and distilled water ad libitum. The mice were acclimatized for one week in the laboratory conditions before being used in the experiment. All experiments were conducted between 10.00 hr and 14.00 hr. Principles of laboratory animals care (NIH publication no. 85-23, revised 1985) were followed.

[4] = Body weight, food intake and water intake during alcohol-induced hepatotoxicity study (Example III); format: in vivo, Swiss Albino mice; details: for change in body weight / change in food intake / change in water intake: 10 mg/kg p.o. + alcohol, 15 days; for body weight / food intake / water intake: 10 mg/kg p.o. + alcohol 5 g/kg p.o. twice daily, mean ± SD
Protocol: as §1, §2, §3, §4

[5] = female mice, doses 3-OH-DBP 2, 3,8-(OH)2-DBP 10, 1:5 combination 12 mg/kg b.w.
[6] = female mice, doses 3-OH-DBP 10, 3,8-(OH)2-DBP 50, 1:5 combination 60 mg/kg b.w.
[7] = male mice, doses 3-OH-DBP 2, 3,8-(OH)2-DBP 10, 1:5 combination 12 mg/kg b.w.
[8] = male mice, doses 3-OH-DBP 10, 3,8-(OH)2-DBP 50, 1:5 combination 60 mg/kg b.w.
[9] = female mice (Table 14), 10 mg/kg p.o.
[10] = male mice (Table 13), 10 mg/kg p.o.

With `O=c1oc2cc(O)ccc2c2ccc(O)cc12` [3,8-(OH)2-DBP, 3,8-dihydroxy-dibenzo-alpha-pyrone] the “hepatoprotective activity (conclusion, Tables 19 and 20)” value ([1]; CCl4-induced hepatotoxicity, male and female mice) was “hepatoprotective activity in a dose dependent manner”, the ACP [1, 5] was 48 ± 4 (c) U/L and the ALP [1, 5] was 89 ± 5.1 (c) IU/L. The ALT [1, 5] was 68 ± 6.5 (c) IU/L, the AST [1, 5] was 57 ± 8 (c) ^ IU/L and the “Total Protein” value [1, 5] was 4.9 ± 0.21 g/dL. For the same compound, the ACP [1, 6] was 28 ± 5.1 (f) U/L, the ALP [1, 6] was 68 ± 8 (f) ^ IU/L and the ALT [1, 6] was 62 ± 3.6 (f) IU/L. The AST [1, 6] was 41 ± 14^###(f) IU/L, the “Total Protein” value [1, 6] was 6.6 ± 0.16 g/dL and the “ACP, difference in values from CCl4 treated mice” value (“ACP, difference in values” below) [1, 5] was “B = (a-c = 32) U/L”. For the same compound, the “ALP, difference in values from CCl4 treated mice” value (shortened to “ALP, difference in values”) [1, 5] was “B = (a-c = 1) IU/L”, the “ALT, difference in values from CCl4 treated mice” value (“ALT, difference in values” for short) [1, 5] was “B = (a-c = 19) IU/L” and the “AST, difference in values from CCl4 treated mice” value (“AST, difference in values” below) [1, 5] was “B = (a-c = 48) IU/L”. The “ACP, difference in values” value [1, 6] was “E = (a-f = 52) U/L”, the “ALP, difference in values” value [1, 6] was “E = (a-f = 22) IU/L” and the “ALT, difference in values” value [1, 6] was “E = (a-f = 25) IU/L”. For the same compound, the “AST, difference in values” value [1, 6] was “E = (a-f = 64) IU/L”, the ACP [1, 7] was 48 ± 7.2***,#(c) U/L and the ALP [1, 7] was 89 ± 5.1*,,#(c) IU/L. For the same compound, the ALT [1, 7] was 68 ± 5.1 (c) IU/L, the AST [1, 7] was 70 ± 4.4##(c) IU/L and the “Total Protein” value [1, 7] was 6.3 ± 0.36 g/dL. For the same compound, the ACP [1, 8] was 46 ± 2.5 (f)^ U/L, the ALP [1, 8] was 68 ± 8##(f) ^ IU/L and the ALT [1, 8] was 60 ± 2.5 (f) IU/L. The AST [1, 8] was 58 ± 1.9###(f)^ IU/L, the “Total Protein” value [1, 8] was 6 ± 0.40 g/dL and the Relative liver weight ([1]; male mice, CCl4 study of Example IV) was “significantly increased”. For the same compound, the “ACP, difference in values” value [1, 7] was “B = (a-c = 38) U/L”, the “ALP, difference in values” value [1, 7] was “B = (a-c = 53) IU/L” and the “ALT, difference in values” value [1, 7] was “B = (a-c = 12) IU/L”. For the same compound, the “AST, difference in values” value [1, 7] was “B = (a-c = 33) IU/L”, the “ACP, difference in values” value [1, 8] was “E = (a-f = 20) U/L” and the “ALP, difference in values” value [1, 8] was “E = (a-f = 74) IU/L”. For the same compound, the “ALT, difference in values” value [1, 8] was “E = (a-f = 20) IU/L”, the “AST, difference in values” value [1, 8] was “E = (a-f = 45) IU/L” and the “hepatoprotective activity against alcohol-induced hepatotoxicity” value ([2]; 10 mg/kg p.o., 15 days) was “significant hepatoprotective activity”. The “effect on alcohol-induced increased plasma ACP” value [2, 9] was “significantly (p<0.05) attenuated”, the “effect on alcohol-induced increased plasma ALT” value [2, 9] was “significantly (p<0.001) attenuated” and the “effect on alcohol-induced increased plasma AST” value [2, 9] was “significantly (p<0.05; p<0.01) attenuated”. The “effect on plasma ALP level compared with ALC group” value [2, 9] was “did not show significant (p>0.05) change”, the “Relative organ weight (w.r.t body weight) Kidney” value ([2]; female mice, 15 days) was 0.012 ± 0.001 and the “Relative organ weight (w.r.t body weight) Liver” value ([2]; female mice, 15 days) was 0.048 ± 0.001. For the same compound, the ACP ([2]; female mice, 15 days) was 4.31 ± 2.84^## IU/L, the ALP ([2]; female mice, 15 days) was 43.12 ± 5.84 IU/L and the “ALT(SGPT)” value ([2]; female mice, 15 days) was 6.72 ± 0.727^## IU/L. The “AST(SGOT)” value ([2]; female mice, 15 days) was 3.62 ± 1.27^## IU/L, the Total Protein ([2]; female mice, 15 days) was 3.229 ± 0.187 g/dL and the “effect on alcohol-induced increased plasma ACP” value [2, 10] was “significantly (p<0.05) attenuated”. For the same compound, the “effect on alcohol-induced increased plasma ALT” value [2, 10] was “significantly (p<0.05) attenuated”, the “effect on alcohol-induced increased plasma AST” value [2, 10] was “significantly (p<0.05) attenuated” and the “Relative organ weight (w.r.t body weight) Kidney” value ([2]; male mice, 15 days) was 0.016 ± 0.002. For the same compound, the “Relative organ weight (w.r.t body weight) Liver” value ([2]; male mice, 15 days) was 0.044 ± 0.005, the ACP ([2]; male mice, 15 days) was 4.29 ± 1.22^## IU/L and the ALP ([2]; male mice, 15 days) was 27.39 ± 6.15 ^ IU/L. The “ALT(SGPT)” value ([2]; male mice, 15 days) was 9.98 ± 3.44^# IU/L, the “AST(SGOT)” value ([2]; male mice, 15 days) was 4.51 ± 1.80^# IU/L and the Total Protein ([2]; male mice, 15 days) was 3.229 ± 0.187^ g/dl. The “effect on CCl4-induced hepatotoxicity (ALT, AST, bilirubin, total protein vs CCl4 group)” value ([3]; 10 mg/kg p.o., mice) was “significantly attenuated and reversed the CCl4-induced hepatotoxicity”, the “effect on CCl4-induced lipid peroxidation (MDA)” value ([3]; 10 mg/kg p.o., mice) was “significantly lowered CCl4-induced lipid peroxidation” and the ALT ([3]; female mice) was 60.99 ± 13.49 IU/L. For the same compound, the AST ([3]; female mice) was 12.95 ± 2.46 IU/L, the MDA ([3]; female mice) was 6.53 ± 0.66 nmol/mL and the “Total Bilirubin” value ([3]; female mice) was 0.60 ± 0.18 mg/dL. The Total Protein ([3]; female mice) was 4.02 ± 0.3 g/dL, the “hepatoprotective activity against carbon tetrachloride-induced liver damage, in comparison to 3-OH-DBP” value ([3]; females, 10 mg/kg p.o.) was “better hepatoprotective activity” and the ALT ([3]; male mice) was 64.78 ± 4.65 IU/L. For the same compound, the AST ([3]; male mice) was 13.04 ± 3.74 IU/L, the “Total Bilirubin” value ([3]; male mice) was 0.48 ± 0.14 mg/dL and the “Total Protein” value ([3]; male mice) was 0.00412 ± 0.00086 g/dL. The MDA ([3]; male mice, 10 mg/kg) was 6.59 nmol/mL and 6.59 ± 0.82 nmol/mL, the “hepatoprotective activity against carbon tetrachloride-induced liver damage” value ([3]; males and females, 10 mg/kg p.o.) was “significant hepatoprotective activity” and the “change in body weight” value ([4]; female mice) was “No significant change”. The “change in food intake” value ([4]; female mice) was “No significant change”, the “change in water intake” value ([4]; female mice) was “No significant change” and the body weight ([4]; female mice, Day 0) was 25.17 ± 2.32 gm. The food intake ([4]; female mice, Day 0) was 8.52 ± 0.30 gm, the water intake ([4]; female mice, Day 0) was 4 ± 0.28 mL and the body weight ([4]; female mice, Day 5) was 23.5 ± 3.02 gm. It also gave a food intake ([4]; female mice, Day 5) of 8.78 ± 1.02 gm, a water intake ([4]; female mice, Day 5) of 4.01 ± 0.26 mL and a body weight ([4]; female mice, Day 10) of 23.67 ± 3.07 gm. For the same compound, the food intake ([4]; female mice, Day 10) was 16.44 ± 0.47 gm, the water intake ([4]; female mice, Day 10) was 2.32 ± 0.46 mL and the body weight ([4]; female mice, Day 15) was 22.83 ± 2.78 gm. The food intake ([4]; female mice, Day 15) was 16.12 ± 0.66 gm, the water intake ([4]; female mice, Day 15) was 2.15 ± 0.44 mL and the “change in body weight” value ([4]; male mice) was “No significant change”. For the same compound, the “change in food intake” value ([4]; male mice) was “No significant change”, the “change in water intake” value ([4]; male mice) was “No significant change” and the body weight ([4]; male mice, Day 0) was 29.17 ± 2.79 gm. The food intake ([4]; male mice, Day 0) was 17.01 ± 0.75 gm, the water intake ([4]; male mice, Day 0) was 4.92 ± 0.45 mL and the body weight ([4]; male mice, Day 5) was 25 ± 3.29 gm. The food intake ([4]; male mice, Day 5) was 17.18 ± 0.85 gm, the water intake ([4]; male mice, Day 5) was 5.07 ± 0.61 mL and the body weight ([4]; male mice, Day 10) was 25.67 ± 2.66 gm. The food intake ([4]; male mice, Day 10) was 17.21 ± 1.11 gm, the water intake ([4]; male mice, Day 10) was 2.32 ± 0.31 mL and the body weight ([4]; male mice, Day 15) was 24.8 ± 2.93 gm. It also gave a food intake ([4]; male mice, Day 15) of 17.23 ± 1.16 gm and a water intake ([4]; male mice, Day 15) of 2.27 ± 0.33 mL.
